Where a name gives a salt, the structure may show the parent alone.
Experiment: NDMA content of Metformin Extended Release Tablets by LC-MS
Assay type: physicochemical
Settings: active substance of lot XP9004
Description: Of particular concern is the level of NDMA in a class of anti-diabetic drugs including metformin hydrochloride tablets. Since these drugs are administered over a long period of time to patients, the amount of NDMA impurity in such products is of particular concern. It has been established that the 96 ng is the Acceptable Daily Intake Limit (ADI) for N-Nitrosodimethylamine (NDMA) in Metformin Hydrochloride tablets. The levels of NDMA in metformin hydrochloride tablets can be determined by analytical methods like Liquid Chromatography-Mass Spectrometry. Other drugs that can have similar issues are anti-diabetic drugs, a drug to treat Gastroesophageal Reflux Diseases (GERD) or an Angiotensis II receptor antagonist drug (ARBs).
This meant that the potential daily exposure of NDMA in the product was 160 ng/day

SMILES: CN(C)C(=N)N=C(N)N [active substance, Metformin Hydrochloride]
- NDMA in the active substance used in the lot: no detectable NDMA

From patent US20220079894A1, “STABLE PHARMACEUTICAL COMPOSITIONS” (priority 2020, published 2022)
